# System: MV-4-11 cells
# Experiment: Gene expression microarray analysis (Affymetrix PrimeView) and GSEA
# Type: cell-based, human
# Parameters: RFU PODN (11730768_x_at) / Fold change /veh PODN (11730768_x_at) / RFU LINC00158 (11744669_a_at) / Fold change /veh LINC00158 (11744669_a_at) / RFU DUSP10 (11751237_a_at) / Fold change /veh DUSP10 (11751237_a_at) / RFU ID3 (11757404_x_at) / Fold change /veh ID3 (11757404_x_at) / RFU PLEKHG5 (11737974_s_at) / Fold change /veh PLEKHG5 (11737974_s_at) / RFU LRRC4B (11730491_at) / Fold change /veh LRRC4B (11730491_at) / RFU GIMAP4 (11747438_a_at) / Fold change /veh GIMAP4 (11747438_a_at) / RFU KRT8 (11758183_x_at) / Fold change /veh KRT8 (11758183_x_at) / RFU CNN1 (11734310_a_at) / Fold change /veh CNN1 (11734310_a_at) / RFU VPS37D (11726825_at) / Fold change /veh VPS37D (11726825_at) / RFU C10orf10 (11716522_x_at) / Fold change /veh C10orf10 (11716522_x_at) / RFU KIR2DL2 /// KIR2DL4 /// KIR2DL5A /// KIR2DL5B /// KIR2DS1 /// KIR2DS2 /// KIR2DS3 /// KIR2DS4 /// KIR3DL3 /// KIR3DL3 /// KIR3DS1 (11738374_at) / Fold change /veh KIR2DL2 /// KIR2DL4 /// KIR2DL5A /// KIR2DL5B /// KIR2DS1 /// KIR2DS2 /// KIR2DS3 /// KIR2DS4 /// KIR3DL3 /// KIR3DL3 /// KIR3DS1 (11738374_at) / RFU C1QL1 (11718748_at) / Fold change /veh C1QL1 (11718748_at) / RFU TMPRSS4 (11747572_a_at) / Fold change /veh TMPRSS4 (11747572_a_at) / RFU HAMP (11756126_x_at) / Fold change /veh HAMP (11756126_x_at) / RFU RNFT2 (11725882_a_at) / Fold change /veh RNFT2 (11725882_a_at) / RFU NR4A2 (11747474_a_at) / Fold change /veh NR4A2 (11747474_a_at) / RFU ABCC12 (11746883_a_at) / Fold change /veh ABCC12 (11746883_a_at) / RFU TMEM136 (11760407_x_at) / Fold change /veh TMEM136 (11760407_x_at) / RFU CLDN22 /// WWC2 (11732394_at) / Fold change /veh CLDN22 /// WWC2 (11732394_at) / RFU HLA-DPB1 (11760878_x_at) / Fold change /veh HLA-DPB1 (11760878_x_at) / RFU SPINT1 (11716480_a_at) / Fold change /veh SPINT1 (11716480_a_at) / RFU GAP43 (11754022_s_at) / Fold change /veh GAP43 (11754022_s_at) / RFU A4GNT (11735810_at) / Fold change /veh A4GNT (11735810_at) / RFU PRB3 (11715151_x_at) / Fold change /veh PRB3 (11715151_x_at) / RFU TUBB4B (11761932_at) / Fold change /veh TUBB4B (11761932_at) / RFU CAPN14 (11732068_a_at) / Fold change /veh CAPN14 (11732068_a_at) / RFU TMCC2 (11721928_a_at) / Fold change /veh TMCC2 (11721928_a_at) / RFU IRGQ (11745062_a_at) / Fold change /veh IRGQ (11745062_a_at) / RFU FAM174B (11720279_a_at) / Fold change /veh FAM174B (11720279_a_at) / RFU TMPRSS4 (11748680_a_at) / Fold change /veh TMPRSS4 (11748680_a_at) / RFU FAM212B (11763350_a_at) / Fold change /veh FAM212B (11763350_a_at) / RFU PLEKHG5 (11743358_a_at) / Fold change /veh PLEKHG5 (11743358_a_at) / RFU ZSCAN30 (11745921_a_at) / Fold change /veh ZSCAN30 (11745921_a_at) / RFU CMKLR1 (11741424_a_at) / Fold change /veh CMKLR1 (11741424_a_at) / RFU LOC101060620 /// MAPK8IP1 (11723275_at) / Fold change /veh LOC101060620 /// MAPK8IP1 (11723275_at) / RFU SPTSSB (11747773_x_at) / Fold change /veh SPTSSB (11747773_x_at) / RFU PRSS12 (11739890_at) / Fold change /veh PRSS12 (11739890_at) / RFU BIN1 (11741810_x_at) / Fold change /veh BIN1 (11741810_x_at) / RFU WNT11 (11732464_a_at) / Fold change /veh WNT11 (11732464_a_at) / RFU C10orf10 (11716521_a_at) / Fold change /veh C10orf10 (11716521_a_at) / RFU C5orf56 (11738089_at) / Fold change /veh C5orf56 (11738089_at) / RFU CYB561 (11721691_x_at) / Fold change /veh CYB561 (11721691_x_at) / RFU ANKRD19P (11752326_a_at) / Fold change /veh ANKRD19P (11752326_a_at) / RFU OR2T12 /// OR2T33 /// OR2T8 (11738714_s_at) / Fold change /veh OR2T12 /// OR2T33 /// OR2T8 (11738714_s_at) / RFU VCAN (11748164_a_at) / Fold change /veh VCAN (11748164_a_at) / RFU JSRP1 (11732532_at) / Fold change /veh JSRP1 (11732532_at) / RFU KRTAP10-11 (11738290_x_at) / Fold change /veh KRTAP10-11 (11738290_x_at) / RFU MYO3A (11730013_a_at) / Fold change /veh MYO3A (11730013_a_at) / RFU EBF3 (11725865_a_at) / Fold change /veh EBF3 (11725865_a_at) / RFU CAMK2N1 (11719241_x_at) / Fold change /veh CAMK2N1 (11719241_x_at) / RFU C5orf56 (11738088_a_at) / Fold change /veh C5orf56 (11738088_a_at) / RFU OLFML3 (11715873_a_at) / Fold change /veh OLFML3 (11715873_a_at) / RFU LOC100653217 /// NTM (11731650_a_at) / Fold change /veh LOC100653217 /// NTM (11731650_a_at) / RFU MAPK11 (11762145_a_at) / Fold change /veh MAPK11 (11762145_a_at) / RFU FIZ1 (11724087_x_at) / Fold change /veh FIZ1 (11724087_x_at) / RFU OASL (11726364_x_at) / Fold change /veh OASL (11726364_x_at) / RFU SOX15 (11748057_x_at) / Fold change /veh SOX15 (11748057_x_at) / RFU CD79A (11719716_a_at) / Fold change /veh CD79A (11719716_a_at) / RFU HIST1H1D (11736915_at) / Fold change /veh HIST1H1D (11736915_at) / RFU CASKIN2 (11723855_a_at) / Fold change /veh CASKIN2 (11723855_a_at) / RFU LOC730098 (11760151_x_at) / Fold change /veh LOC730098 (11760151_x_at) / RFU OR4N2 (11742367_at) / Fold change /veh OR4N2 (11742367_at) / RFU PRRT2 (11749266_a_at) / Fold change /veh PRRT2 (11749266_a_at) / RFU SNX32 (11753110_a_at) / Fold change /veh SNX32 (11753110_a_at) / RFU CDHR5 (11726645_a_at) / Fold change /veh CDHR5 (11726645_a_at) / RFU RCAN1 (11760418_a_at) / Fold change /veh RCAN1 (11760418_a_at) / RFU FAM167A (11723789_a_at) / Fold change /veh FAM167A (11723789_a_at) / RFU FAM26E (11764081_at) / Fold change /veh FAM26E (11764081_at) / RFU ISYNA1 (11749810_s_at) / Fold change /veh ISYNA1 (11749810_s_at) / RFU ACY1 (11761880_at) / Fold change /veh ACY1 (11761880_at) / RFU 11764098_at / Fold change /veh 11764098_at / RFU SAMD14 (11745864_x_at) / Fold change /veh SAMD14 (11745864_x_at) / RFU NPB (11741838_a_at) / Fold change /veh NPB (11741838_a_at) / RFU TMPRSS6 (11731388_a_at) / Fold change /veh TMPRSS6 (11731388_a_at) / RFU KRTAP10-2 (11738614_at) / Fold change /veh KRTAP10-2 (11738614_at) / RFU ARHGAP8 /// PRR5-ARHGAP8 (11727945_x_at) / Fold change /veh ARHGAP8 /// PRR5-ARHGAP8 (11727945_x_at) / RFU KRTAP5-7 /// NADSYN1 (11734609_at) / Fold change /veh KRTAP5-7 /// NADSYN1 (11734609_at) / RFU RASL12 (11751679_a_at) / Fold change /veh RASL12 (11751679_a_at) / RFU CDKN2B (11736163_a_at) / Fold change /veh CDKN2B (11736163_a_at) / RFU PRF1 (11729649_at) / Fold change /veh PRF1 (11729649_at) / RFU, ZNF638 /// ZNF638-IT1 / Fold change vs veh, ZNF638 /// ZNF638-IT1 / RFU, PANK3 / Fold change vs veh, PANK3 / RFU, SH3YL1 / Fold change vs veh, SH3YL1 / RFU, ZEB2 / Fold change vs veh, ZEB2 / RFU, NRIP1 / Fold change vs veh, NRIP1 / RFU, PTTG1IP / Fold change vs veh, PTTG1IP / RFU, CAPN2 / Fold change vs veh, CAPN2 / RFU, MED14 / Fold change vs veh, MED14 / RFU, SNORA58 / Fold change vs veh, SNORA58 / RFU, C1orf63 / Fold change vs veh, C1orf63 / RFU, LRRFIP1 / Fold change vs veh, LRRFIP1 / RFU, NDUFAF7 / Fold change vs veh, NDUFAF7 / RFU, SLC12A2 / Fold change vs veh, SLC12A2 / RFU, IBTK / Fold change vs veh, IBTK / RFU, ESF1 / Fold change vs veh, ESF1 / Fold change vs veh, TMEM50B / RFU, TAOK1 / Fold change vs veh, TAOK1 / RFU, ACBD3 / Fold change vs veh, ACBD3 / RFU, TMA16 / Fold change vs veh, TMA16 / RFU, RWDD3 / Fold change vs veh, RWDD3 / RFU, BCAT1 / Fold change vs veh, BCAT1 / RFU, EDEM3 / Fold change vs veh, EDEM3 / RFU, TMEM33 / Fold change vs veh, TMEM33 / RFU, WDR75 / Fold change vs veh, WDR75 / RFU, AHCTF1 / Fold change vs veh, AHCTF1 / RFU, TFRC / Fold change vs veh, TFRC / RFU, ZDHHC17 / Fold change vs veh, ZDHHC17 / RFU, NOM1 / Fold change vs veh, NOM1 / RFU, ARL8B / Fold change vs veh, ARL8B / RFU, ZBTB11 / Fold change vs veh, ZBTB11 / RFU, TAMM41 / Fold change vs veh, TAMM41 / RFU, KIAA1704 /// LOC100996395 / Fold change vs veh, KIAA1704 /// LOC100996395 / RFU, ING1 / Fold change vs veh, ING1 / RFU, TRMT61B / Fold change vs veh, TRMT61B / RFU, FUBP3 / Fold change vs veh, FUBP3 / RFU, TP53 / Fold change vs veh, TP53 / RFU, TNKS2 / Fold change vs veh, TNKS2 / RFU, ZFP14 / Fold change vs veh, ZFP14 / RFU, ACTR2 / Fold change vs veh, ACTR2 / RFU, PPP3R1 / Fold change vs veh, PPP3R1 / RFU, PIK3R1 / Fold change vs veh, PIK3R1 / RFU, HNRNPA1 / Fold change vs veh, HNRNPA1 / RFU, RNF170 / Fold change vs veh, RNF170 / RFU, ZNF28 / Fold change vs veh, ZNF28 / RFU, RNGTT / Fold change vs veh, RNGTT / RFU, OGT / Fold change vs veh, OGT / RFU, BRD1 / Fold change vs veh, BRD1 / RFU, MARS / Fold change vs veh, MARS / RFU, ZNF655 / Fold change vs veh, ZNF655 / RFU, FAHD1 / Fold change vs veh, FAHD1 / RFU, BDP1 / Fold change vs veh, BDP1 / RFU, LRRCC1 / Fold change vs veh, LRRCC1 / RFU, ARID1A / Fold change vs veh, ARID1A / RFU, ZNF146 / Fold change vs veh, ZNF146 / RFU, ZNF330 / Fold change vs veh, ZNF330 / RFU, GPN3 / Fold change vs veh, GPN3 / RFU, C9orf123 / Fold change vs veh, C9orf123 / RFU, N4BP2L2 / Fold change vs veh, N4BP2L2 / RFU, ARFIP1 / Fold change vs veh, ARFIP1 / RFU, FAM179B / Fold change vs veh, FAM179B / RFU, BCL10 / Fold change vs veh, BCL10 / RFU, UHRF1BP1L / Fold change vs veh, UHRF1BP1L / RFU, BET1 / Fold change vs veh, BET1 / RFU, CNOT2 / Fold change vs veh, CNOT2 / RFU, ZNF268 / Fold change vs veh, ZNF268 / Fold change vs veh, ZNF507 / RFU, DGCR2 / Fold change vs veh, DGCR2 / RFU, WDSUB1 / Fold change vs veh, WDSUB1 / Fold change vs veh, HSP90B1 /// MIR3652 / RFU, ADSS / Fold change vs veh, ADSS / RFU, GK / Fold change vs veh, GK / RFU, ZNF148 / Fold change vs veh, ZNF148 / RFU, TAF9 / Fold change vs veh, TAF9 / RFU, SLC1A5 / Fold change vs veh, SLC1A5 / RFU, SLMO2 / Fold change vs veh, SLMO2 / RFU, ABCC4 / Fold change vs veh, ABCC4 / RFU, LOC101060439 /// RAP1B / Fold change vs veh, LOC101060439 /// RAP1B / RFU, RFX7 / Fold change vs veh, RFX7 / RFU, GTPBP10 / Fold change vs veh, GTPBP10 / RFU, CNEP1R1 / Fold change vs veh, CNEP1R1 / RFU, BIVM-ERCC5 /// ERCC5 / Fold change vs veh, BIVM-ERCC5 /// ERCC5 / RFU, ILF3 / Fold change vs veh, ILF3 / RFU 11762660_at / Fold change /veh 11762660_at / RFU VCAN (11757783_s_at) / Fold change /veh VCAN (11757783_s_at) / RFU DDX43 (11728927_at) / Fold change /veh DDX43 (11728927_at) / RFU KRT8 (11758188_x_at) / Fold change /veh KRT8 (11758188_x_at) / RFU NKD1 (11759106_at) / Fold change /veh NKD1 (11759106_at) / RFU SRD5A1 (11742802_a_at) / Fold change /veh SRD5A1 (11742802_a_at) / RFU TPSAB1 /// TPSB2 (11721975_s_at) / Fold change /veh TPSAB1 /// TPSB2 (11721975_s_at) / RFU GSTM3 (11746129_a_at) / Fold change /veh GSTM3 (11746129_a_at) / RFU IL23R (11737362_x_at) / Fold change /veh IL23R (11737362_x_at) / RFU TMEM51 (11727254_a_at) / Fold change /veh TMEM51 (11727254_a_at) / RFU PIWIL2 (11732686_x_at) / Fold change /veh PIWIL2 (11732686_x_at) / RFU ORM1 (11744905_x_at) / Fold change /veh ORM1 (11744905_x_at) / RFU CCDC152 (11743942_at) / Fold change /veh CCDC152 (11743942_at) / RFU ECM1 (11717891_a_at) / Fold change /veh ECM1 (11717891_a_at) / RFU IL23R (11748794_a_at) / Fold change /veh IL23R (11748794_a_at) / RFU TNFAIP8L3 (11732012_x_at) / Fold change /veh TNFAIP8L3 (11732012_x_at) / RFU MBOAT4 (11741988_at) / Fold change /veh MBOAT4 (11741988_at) / RFU 11764193_at / Fold change /veh 11764193_at / RFU TMEM53 (11763286_at) / Fold change /veh TMEM53 (11763286_at) / RFU MAGEB2 (11727129_at) / Fold change /veh MAGEB2 (11727129_at) / RFU TMEM200A (11744735_a_at) / Fold change /veh TMEM200A (11744735_a_at) / RFU CCDC152 (11751479_a_at) / Fold change /veh CCDC152 (11751479_a_at) / RFU FAM211A (11726209_a_at) / Fold change /veh FAM211A (11726209_a_at) / RFU RGS16 (11746705_a_at) / Fold change /veh RGS16 (11746705_a_at) / RFU VCAN (11755009_s_at) / Fold change /veh VCAN (11755009_s_at) / RFU RHOB (11743442_s_at) / Fold change /veh RHOB (11743442_s_at) / RFU RGS16 (11720943_a_at) / Fold change /veh RGS16 (11720943_a_at) / RFU RGS16 (11720944_at) / Fold change /veh RGS16 (11720944_at) / RFU, VPS4B / Fold change vs veh, VPS4B / RFU, CREB1 / Fold change vs veh, CREB1 / RFU, DNAJC13 / Fold change vs veh, DNAJC13 / RFU, GNAQ / Fold change vs veh, GNAQ / RFU, CDK5R1 / Fold change vs veh, CDK5R1 / RFU, ZRANB3 / Fold change vs veh, ZRANB3 / RFU, CUL4A / Fold change vs veh, CUL4A / RFU, CCNY / Fold change vs veh, CCNY / RFU, UFL1 / Fold change vs veh, UFL1 / RFU, COG3 / Fold change vs veh, COG3 / RFU, DIAPH2 / Fold change vs veh, DIAPH2 / RFU, SKA2 / Fold change vs veh, SKA2 / RFU, AFF3 / Fold change vs veh, AFF3 / RFU, LMF1 / Fold change vs veh, LMF1 / RFU, IPO11 / Fold change vs veh, IPO11 / RFU, DFFB / Fold change vs veh, DFFB / RFU, FOXP1 / Fold change vs veh, FOXP1 / RFU, CARD8 / Fold change vs veh, CARD8 / RFU, STRN3 / Fold change vs veh, STRN3 / RFU, ADK / Fold change vs veh, ADK / RFU, RASSF2 / Fold change vs veh, RASSF2 / RFU, WIPF1 / Fold change vs veh, WIPF1 / RFU, LARP1B / Fold change vs veh, LARP1B / RFU, RASA1 / Fold change vs veh, RASA1 / RFU, RB1 / Fold change vs veh, RB1 / RFU, PPFIA1 / Fold change vs veh, PPFIA1 / RFU, MAT2A / Fold change vs veh, MAT2A / RFU, CCT5 / Fold change vs veh, CCT5 / RFU, WDR92 / Fold change vs veh, WDR92 / RFU, CUX1 / Fold change vs veh, CUX1 / RFU, TTC7A / Fold change vs veh, TTC7A / RFU, TMEM135 / Fold change vs veh, TMEM135 / RFU, DEPTOR / Fold change vs veh, DEPTOR / RFU, CPM / Fold change vs veh, CPM / RFU, DNAJB6 / Fold change vs veh, DNAJB6 / RFU, CACNA2D3 / Fold change vs veh, CACNA2D3 / RFU, DTX4 / Fold change vs veh, DTX4 / RFU, TFCP2 / Fold change vs veh, TFCP2 / RFU, GMCL1 /// GMCL1P1 / Fold change vs veh, GMCL1 /// GMCL1P1 / RFU, AEBP2 / Fold change vs veh, AEBP2 / RFU, SNHG1 /// SNORD22 /// SNORD25 /// SNORD26 /// SNORD27 /// SNORD28 /// SNORD29 /// SNORD31 / Fold change vs veh, SNHG1 /// SNORD22 /// SNORD25 /// SNORD26 /// SNORD27 /// SNORD28 /// SNORD29 /// SNORD31 / Fold change (Aza/veh), C12orf56 (ProbeSet 11735607_a_at) / Fold change (ACY-1035/veh), C12orf56 (ProbeSet 11735607_a_at) / Fold change (Aza/veh), FGFR1OP (ProbeSet 11751329_s_at) / Fold change (ACY-1035/veh), FGFR1OP (ProbeSet 11751329_s_at) / Fold change (Aza/veh), VPS36 (ProbeSet 11739960_a_at) / Fold change (ACY-1035/veh), VPS36 (ProbeSet 11739960_a_at) / RFU SYPL1 (11715823_x_at) / Fold change /veh SYPL1 (11715823_x_at) / RFU IGFBP7 (11715501_s_at) / Fold change /veh IGFBP7 (11715501_s_at) / RFU REEP3 (11722064_at) / Fold change /veh REEP3 (11722064_at) / RFU IGLL1 (11728026_x_at) / Fold change /veh IGLL1 (11728026_x_at): dose or concentration left out as unconfirmed
# Conditions: ProbeSet 11756954_s_at; LIST B
smiles,measurement,value
Nc1ncn([C@@H]2O[C@H](CO)[C@@H](O)[C@H]2O)c(=O)n1 [azacitidine],"RFU, ZEB2",1324.44 RFU

# From paper PMC5218480 (PLoS ONE, 2017)
